Molecules are shown by their SMILES.

The species entered for the first experiment is Homo sapiens. The experiment is described as follows: Ratio of IC50 for Mer (unknown origin) to IC50 for Axl (unknown origin).
Regarding `CC(C)n1cc(C(=O)Nc2ccc(Oc3ncnc4c3CCN(C(=O)C3CCN(C)CC3)C4)c(F)c2)c(=O)n(-c2ccc(F)cc2)c1=O`, the Ratio IC50 was determined as 42.
`CC(C)n1cc(C(=O)Nc2ccc(Oc3ncnc4c3CN(CC3CCN(C)CC3)C4)c(F)c2)c(=O)n(-c2ccc(F)cc2)c1=O`: the Ratio IC50 is 11.
As to `CC(C)n1cc(C(=O)Nc2ccc(Oc3ncnc4c3CC(=O)N4)c(F)c2)c(=O)n(-c2ccc(F)cc2)c1=O`, the Ratio IC50 was found to be 2.9.

The test system of a further experiment is BaF3. As to the kind of experiment: Ratio of IC50 for Mer in mouse BaF3 cells to IC50 for Axl in mouse BaF3 cells. It is filed as cell-based.
Take `CC(C)n1cc(C(=O)Nc2ccc(Oc3ncnc4c3CCN(C(=O)C3CCN(C)CC3)C4)c(F)c2)c(=O)n(-c2ccc(F)cc2)c1=O`: the Ratio IC50 was found to be 5.3.
With `CC(C)n1cc(C(=O)Nc2ccc(Oc3ncnc4c3CN(CC3CCN(C)CC3)C4)c(F)c2)c(=O)n(-c2ccc(F)cc2)c1=O`, the Ratio IC50 was 2.5.
In the case of `CC(C)n1cc(C(=O)Nc2ccc(Oc3ncnc4c3CC(=O)N4)c(F)c2)c(=O)n(-c2ccc(F)cc2)c1=O`, the Ratio IC50 came out at 2.9.

For the next experiment, the target named is T1, Tyrosine-protein kinase receptor UFO (Homo sapiens, UniProt P30530).
T1 sequence (P30530 whole entry): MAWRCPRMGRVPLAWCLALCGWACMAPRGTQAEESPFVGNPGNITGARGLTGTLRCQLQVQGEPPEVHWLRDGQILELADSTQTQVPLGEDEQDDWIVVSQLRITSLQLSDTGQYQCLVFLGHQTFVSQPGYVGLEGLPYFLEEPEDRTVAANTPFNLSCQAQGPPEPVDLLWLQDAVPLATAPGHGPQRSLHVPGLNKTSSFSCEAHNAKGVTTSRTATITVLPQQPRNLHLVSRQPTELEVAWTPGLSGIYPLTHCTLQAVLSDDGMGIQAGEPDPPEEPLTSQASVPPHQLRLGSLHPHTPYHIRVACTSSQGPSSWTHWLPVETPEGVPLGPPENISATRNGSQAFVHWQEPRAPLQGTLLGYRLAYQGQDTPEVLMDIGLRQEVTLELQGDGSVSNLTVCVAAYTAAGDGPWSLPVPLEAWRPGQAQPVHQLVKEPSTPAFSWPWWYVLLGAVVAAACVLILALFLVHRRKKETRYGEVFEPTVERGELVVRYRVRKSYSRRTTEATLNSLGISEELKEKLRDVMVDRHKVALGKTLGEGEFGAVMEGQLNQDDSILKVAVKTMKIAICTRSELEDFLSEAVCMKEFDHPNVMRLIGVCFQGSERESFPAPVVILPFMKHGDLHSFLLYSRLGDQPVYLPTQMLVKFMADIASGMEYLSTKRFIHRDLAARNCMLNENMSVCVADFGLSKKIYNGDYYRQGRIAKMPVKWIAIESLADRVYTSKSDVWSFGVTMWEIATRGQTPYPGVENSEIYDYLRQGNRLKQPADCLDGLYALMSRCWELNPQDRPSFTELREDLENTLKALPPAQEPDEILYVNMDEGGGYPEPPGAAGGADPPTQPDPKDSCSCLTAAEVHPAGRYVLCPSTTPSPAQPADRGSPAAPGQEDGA
The experiment is described as follows: Inhibition of Axl (unknown origin) by cell free assay.
For the compound `CC(C)n1cc(C(=O)Nc2ccc(Oc3ncnc4c3CCN(C(=O)C3CCN(C)CC3)C4)c(F)c2)c(=O)n(-c2ccc(F)cc2)c1=O`, the midpoint of inhibition, the IC50, lay at 12 nM.
Turning to `CC(C)n1cc(C(=O)Nc2ccc(Oc3ncnc4c3CN(CC3CCN(C)CC3)C4)c(F)c2)c(=O)n(-c2ccc(F)cc2)c1=O`, the concentration for half-maximal inhibition (IC50) (as a rule, the concentration needed to halve the response being measured) worked out at 6.2 nM. This IC50 lies about 1.9-fold lower than the previous one.
In turn, `CC(C)n1cc(C(=O)Nc2ccc(Oc3ncnc4c3CC(=O)N4)c(F)c2)c(=O)n(-c2ccc(F)cc2)c1=O` displayed a half-inhibitory concentration (IC50) of 26 nM.

The target in a further experiment is T2, Tyrosine-protein kinase receptor UFO (Mus musculus, UniProt Q00993).
T2 sequence (Q00993 whole entry): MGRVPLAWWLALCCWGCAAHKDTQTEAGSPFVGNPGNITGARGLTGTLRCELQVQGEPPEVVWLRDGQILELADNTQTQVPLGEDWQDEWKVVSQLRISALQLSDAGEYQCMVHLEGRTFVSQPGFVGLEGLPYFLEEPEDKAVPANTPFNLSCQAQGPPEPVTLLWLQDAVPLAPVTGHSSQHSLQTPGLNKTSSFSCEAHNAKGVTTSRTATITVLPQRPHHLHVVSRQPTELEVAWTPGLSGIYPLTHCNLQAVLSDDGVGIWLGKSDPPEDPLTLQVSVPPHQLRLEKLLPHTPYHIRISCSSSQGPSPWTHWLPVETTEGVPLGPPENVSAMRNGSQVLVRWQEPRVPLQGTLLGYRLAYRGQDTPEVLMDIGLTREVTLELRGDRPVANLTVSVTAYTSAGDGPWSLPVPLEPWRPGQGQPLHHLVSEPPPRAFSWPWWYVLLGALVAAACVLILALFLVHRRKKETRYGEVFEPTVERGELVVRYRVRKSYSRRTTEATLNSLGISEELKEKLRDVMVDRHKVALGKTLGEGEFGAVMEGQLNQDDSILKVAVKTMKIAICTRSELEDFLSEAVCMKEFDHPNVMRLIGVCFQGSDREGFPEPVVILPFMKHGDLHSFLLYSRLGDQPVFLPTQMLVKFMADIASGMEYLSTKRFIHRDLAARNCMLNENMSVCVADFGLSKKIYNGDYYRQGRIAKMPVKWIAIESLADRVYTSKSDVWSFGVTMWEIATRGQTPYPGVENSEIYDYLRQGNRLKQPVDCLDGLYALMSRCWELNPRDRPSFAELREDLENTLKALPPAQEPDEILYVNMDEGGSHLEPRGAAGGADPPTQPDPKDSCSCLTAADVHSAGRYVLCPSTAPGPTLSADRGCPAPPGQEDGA
As to the kind of experiment: Inhibition of Axl in mouse BaF3 cells. It is filed as cell-based.
`CC(C)n1cc(C(=O)Nc2ccc(Oc3ncnc4c3CCN(C(=O)C3CCN(C)CC3)C4)c(F)c2)c(=O)n(-c2ccc(F)cc2)c1=O` yielded an IC50 of 120 nM.
Same read-out and setting: then `CC(C)n1cc(C(=O)Nc2ccc(Oc3ncnc4c3CN(CC3CCN(C)CC3)C4)c(F)c2)c(=O)n(-c2ccc(F)cc2)c1=O`, with 32 nM.
The same measure, in the same setting: the figure for `CC(C)n1cc(C(=O)Nc2ccc(Oc3ncnc4c3CC(=O)N4)c(F)c2)c(=O)n(-c2ccc(F)cc2)c1=O` is 84 nM.

A further experiment addresses T3, Tyrosine-protein kinase Mer (Mus musculus, UniProt Q60805).
T3 sequence (Q60805 whole entry): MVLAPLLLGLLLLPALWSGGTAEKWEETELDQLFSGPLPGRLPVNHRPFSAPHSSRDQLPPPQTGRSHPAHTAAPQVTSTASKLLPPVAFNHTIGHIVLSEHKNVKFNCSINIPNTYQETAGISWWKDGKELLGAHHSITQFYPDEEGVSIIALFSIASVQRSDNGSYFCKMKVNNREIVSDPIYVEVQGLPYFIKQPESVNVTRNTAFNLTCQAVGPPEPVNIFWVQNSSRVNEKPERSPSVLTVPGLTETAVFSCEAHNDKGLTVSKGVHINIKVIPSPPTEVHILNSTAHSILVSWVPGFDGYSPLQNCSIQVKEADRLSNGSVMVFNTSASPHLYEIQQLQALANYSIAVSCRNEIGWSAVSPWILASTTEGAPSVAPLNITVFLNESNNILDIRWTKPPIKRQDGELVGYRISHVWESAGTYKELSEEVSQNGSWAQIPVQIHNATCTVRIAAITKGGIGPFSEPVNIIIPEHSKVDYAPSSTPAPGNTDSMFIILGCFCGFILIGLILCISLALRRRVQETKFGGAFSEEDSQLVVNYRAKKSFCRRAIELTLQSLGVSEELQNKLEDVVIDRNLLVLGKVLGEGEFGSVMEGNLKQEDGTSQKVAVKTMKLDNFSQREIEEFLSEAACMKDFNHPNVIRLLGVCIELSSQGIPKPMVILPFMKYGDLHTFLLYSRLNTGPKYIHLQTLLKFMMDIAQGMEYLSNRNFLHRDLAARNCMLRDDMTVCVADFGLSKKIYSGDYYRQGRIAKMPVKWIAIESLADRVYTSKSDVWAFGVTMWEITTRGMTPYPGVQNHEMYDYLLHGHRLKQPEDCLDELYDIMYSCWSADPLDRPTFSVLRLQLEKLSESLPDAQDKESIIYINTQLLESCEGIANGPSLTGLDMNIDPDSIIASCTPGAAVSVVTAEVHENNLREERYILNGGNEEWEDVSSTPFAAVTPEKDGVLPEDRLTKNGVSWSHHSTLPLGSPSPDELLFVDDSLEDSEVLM
As to the kind of experiment: Inhibition of Mer in mouse BaF3 cells. It is filed as cell-based.
On to `CC(C)n1cc(C(=O)Nc2ccc(Oc3ncnc4c3CCN(C(=O)C3CCN(C)CC3)C4)c(F)c2)c(=O)n(-c2ccc(F)cc2)c1=O`, for which the half-maximal inhibitory concentration (IC50) was 630 nM.
Still for that read-out and setting: then `CC(C)n1cc(C(=O)Nc2ccc(Oc3ncnc4c3CN(CC3CCN(C)CC3)C4)c(F)c2)c(=O)n(-c2ccc(F)cc2)c1=O`, with 80 nM.
For the compound `CC(C)n1cc(C(=O)Nc2ccc(Oc3ncnc4c3CC(=O)N4)c(F)c2)c(=O)n(-c2ccc(F)cc2)c1=O`, the IC50 turned out to be 280 nM.

Another experiment concerns the target T4, Tyrosine-protein kinase Mer (Homo sapiens, UniProt Q12866).
T4 sequence (Q12866 whole entry): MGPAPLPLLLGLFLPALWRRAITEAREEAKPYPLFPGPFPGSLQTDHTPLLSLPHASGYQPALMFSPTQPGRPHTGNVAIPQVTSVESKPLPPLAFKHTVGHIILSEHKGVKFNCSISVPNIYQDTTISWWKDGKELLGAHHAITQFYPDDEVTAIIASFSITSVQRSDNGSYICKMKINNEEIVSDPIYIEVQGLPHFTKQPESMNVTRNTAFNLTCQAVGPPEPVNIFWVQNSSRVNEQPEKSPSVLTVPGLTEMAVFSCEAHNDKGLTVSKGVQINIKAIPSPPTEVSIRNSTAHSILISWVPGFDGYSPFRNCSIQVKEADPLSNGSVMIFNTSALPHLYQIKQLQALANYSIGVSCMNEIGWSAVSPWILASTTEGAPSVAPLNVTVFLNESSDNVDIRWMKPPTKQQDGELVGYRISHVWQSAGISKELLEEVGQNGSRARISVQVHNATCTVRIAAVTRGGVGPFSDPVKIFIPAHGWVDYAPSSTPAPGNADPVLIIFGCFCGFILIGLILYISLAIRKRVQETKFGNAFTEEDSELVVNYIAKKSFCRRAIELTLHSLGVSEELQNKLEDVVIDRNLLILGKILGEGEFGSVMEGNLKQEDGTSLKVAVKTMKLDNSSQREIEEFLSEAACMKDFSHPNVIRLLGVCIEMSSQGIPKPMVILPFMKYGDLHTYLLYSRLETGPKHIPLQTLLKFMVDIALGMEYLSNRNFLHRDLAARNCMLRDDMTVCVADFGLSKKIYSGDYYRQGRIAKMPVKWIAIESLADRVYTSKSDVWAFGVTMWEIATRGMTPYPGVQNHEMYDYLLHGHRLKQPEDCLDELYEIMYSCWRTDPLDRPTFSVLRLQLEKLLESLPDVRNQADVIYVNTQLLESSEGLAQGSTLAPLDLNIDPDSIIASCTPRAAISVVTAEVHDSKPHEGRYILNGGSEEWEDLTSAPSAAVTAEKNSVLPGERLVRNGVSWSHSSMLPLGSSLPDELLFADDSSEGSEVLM
The experiment is described as follows: Inhibition of Mer (unknown origin) by cell free assay.
In turn, `CC(C)n1cc(C(=O)Nc2ccc(Oc3ncnc4c3CCN(C(=O)C3CCN(C)CC3)C4)c(F)c2)c(=O)n(-c2ccc(F)cc2)c1=O` registered an IC50 of 500 nM.
In the case of `CC(C)n1cc(C(=O)Nc2ccc(Oc3ncnc4c3CN(CC3CCN(C)CC3)C4)c(F)c2)c(=O)n(-c2ccc(F)cc2)c1=O`, the midpoint of inhibition, the IC50, lay at 69 nM.
In the case of `CC(C)n1cc(C(=O)Nc2ccc(Oc3ncnc4c3CC(=O)N4)c(F)c2)c(=O)n(-c2ccc(F)cc2)c1=O`, half-maximal inhibition (IC50) required 76 nM. This IC50 and that of the compound before are within 1.5-fold of each other.

For the origin of these results see ChEMBL document CHEMBL4823291, “Discovery of 5,6,7,8-tetrahydropyrido[3,4-d]pyrimidine derivatives as novel selective Axl inhibitors” (Bioorg Med Chem Lett, 2021).
